pIC50: −log10 of the molar value.
molecular target: cAMP-dependent protein kinase catalytic subunit alpha (Bos taurus, UniProt P00517); experiment: PKA assay
Procedure: The activity of PKA, activated by cAMP, is measured by its ability to transfer phosphate from [gamma-32P]ATP to histone.

pIC50, < 3.82:
Cc1ccc(S(=O)(=O)N2CCC[C@@H](OC(=O)c3cc(O)c(C(=O)c4c(O)cccc4C(=O)O)c(O)c3)[C@H](NC(=O)c3ccc(O)cc3)C2)cc1 [2-{[2,6-dihydroxy-4-({[(3R,4R)-3-[(4-hydroxybenzene)amido]-1-[(4-methylbenzene)sulfonyl]azepan-4-yl]oxy}carbonyl)phenyl]carbonyl}-3-hydroxybenzoic acid]

pIC50, < 4.30:
O=C(NC(COC(=O)c1cc(O)c(C(=O)c2c(O)cccc2C(=O)O)c(O)c1)Cc1ccc(O)cc1)c1ccccc1 (racemic) [2-[(2,6-dihydroxy-4-{[3-(4-hydroxyphenyl)-2-(phenylformamido)propoxy]carbonyl}phenyl)carbonyl]-3-hydroxybenzoic acid]
CN(C)C(COC(=O)c1cc(O)c(C(=O)c2c(O)cccc2C(=O)O)c(O)c1)Cc1ccc(O)cc1 (racemic) [2-[(4-{[2-(dimethylamino)-3-(4-hydroxyphenyl)propoxy]carbonyl}-2,6-dihydroxyphenyl)carbonyl]-3-hydroxybenzoic acid]
O=C(OCC(NS(=O)(=O)c1ccccc1)c1ccc(O)cc1)c1cc(O)c(C(=O)c2c(O)cccc2C(=O)O)c(O)c1 (racemic) [2-[(4-{[2-benzenesulfonamido-2-(4-hydroxyphenyl)ethoxy]carbonyl}-2,6-dihydroxyphenyl)carbonyl]-3-hydroxybenzoic acid]
O=C(OCC(COc1ccc(O)cc1)NS(=O)(=O)c1ccccc1)c1cc(O)c(C(=O)c2c(O)cccc2C(=O)O)c(O)c1 (racemic) [2-[(4-{[2-benzenesulfonamido-3-(4-hydroxyphenoxy)propoxy]carbonyl}-2,6-dihydroxyphenyl)carbonyl]-3-hydroxybenzoic acid]
O=C(O[C@@H]1CCC[C@H]1Oc1ccc(O)cc1)c1cc(O)c(C(=O)c2c(O)cccc2C(=O)O)c(O)c1 (racemic) [2-{[2,6-dihydroxy-4-({[(1R,2R)-2-(4-hydroxyphenoxy)cyclopentyl]oxy}carbonyl)phenyl]carbonyl}-3-hydroxybenzoic acid]
O=C(O[C@@H]1CCC[C@H]1Cc1ccc(O)cc1)c1cc(O)c(C(=O)c2c(O)cccc2C(=O)O)c(O)c1 (racemic) [2-{[2,6-dihydroxy-4-({[(1R,2S)-2-[(4-hydroxyphenyl)methyl]cyclopentyl]oxy}carbonyl)phenyl]carbonyl}-3-hydroxybenzoic acid]
CS(=O)(=O)NC(COC(=O)c1cc(O)c(C(=O)c2c(O)cccc2C(=O)O)c(O)c1)Cc1ccc(O)cc1 (racemic) [(+-)-2-[[2,6-Dihydroxy-4-[[[3-(4-hydroxyphenyl)-2-[(methylsulfonyl)amino]propyl]oxy]carbonyl]phenyl]carbonyl]-3-hydroxybenzoic Acid]
O=C(OCC(Cc1ccc(O)cc1)NS(=O)(=O)c1ccccc1)c1cc(O)c(C(=O)c2c(O)cccc2C(=O)O)c(O)c1 (racemic) [(+-)-2-[[2,6-Dihydroxy-4-[[[3-(4-hydroxyphenyl)-2-[(phenylsulfonyl)amino]propyl]oxy]carbonyl]phenyl]carbonyl]-3-hydroxybenzoic Acid]
O=C(OCCCCc1ccc(O)cc1)c1cc(O)c(C(=O)c2c(O)cccc2C(=O)O)c(O)c1 [2-[(2,6-dihydroxy-4-{[4-(4-hydroxyphenyl)butoxy]carbonyl}phenyl)carbonyl]-3-hydroxybenzoic acid]
O=C(OC[C@@H](Cc1ccc(O)cc1)NS(=O)(=O)c1ccccc1)c1cc(O)c(C(=O)c2c(O)cccc2C(=O)O)c(O)c1 [2-[(4-{[(2R)-2-benzenesulfonamido-3-(4-hydroxyphenyl)propoxy]carbonyl}-2,6-dihydroxyphenyl)carbonyl]-3-hydroxybenzoic acid]
O=C(OC[C@H](Cc1ccc(O)cc1)NS(=O)(=O)c1ccccc1)c1cc(O)c(C(=O)c2c(O)cccc2C(=O)O)c(O)c1 [2-[(4-{[(2S)-2-benzenesulfonamido-3-(4-hydroxyphenyl)propoxy]carbonyl}-2,6-dihydroxyphenyl)carbonyl]-3-hydroxybenzoic acid]
O=C(OCCCc1ccc(O)cc1)c1cc(O)c(C(=O)c2c(O)cccc2C(=O)O)c(O)c1 [2-[[2,6-Dihydroxy-4-[[[3-(4-hydroxyphenyl)propyl]oxy]carbonyl]phenyl]carbonyl]-3-hydroxybenzoic Acid]
O=C(O[C@@H]1CCC[C@@H]1Cc1ccc(O)cc1)c1cc(O)c(C(=O)c2c(O)cccc2C(=O)O)c(O)c1 [2-{[2,6-dihydroxy-4-({[(1R,2R)-2-[(4-hydroxyphenyl)methyl]cyclopentyl]oxy}carbonyl)phenyl]carbonyl}-3-hydroxybenzoic acid]
COC(=O)c1cccc(O)c1C(=O)c1c(O)cc(C(=O)O[C@@H]2CCC[C@H]2Cc2ccc(O)cc2)cc1O [(1R,2S)-2-[(4-hydroxyphenyl)methyl]cyclopentyl 3,5-dihydroxy-4-{[2-hydroxy-6-(methoxycarbonyl)phenyl]carbonyl}benzoate]
CC(CCc1ccc(O)cc1)OC(=O)c1cc(O)c(C(=O)c2c(O)cccc2C(=O)O)c(O)c1 (stereo not drawn) [(+-)-2-[[2,6-Dihydroxy-4-[[[3-(4-hydroxyphenyl)-1-methylpropyl]oxy]carbonyl]phenyl]carbonyl]-3-hydroxybenzoic Acid]
O=C(OCC(Cc1ccc(O)cc1)NS(=O)(=O)c1ccc2ccccc2c1)c1cc(O)c(C(=O)c2c(O)cccc2C(=O)O)c(O)c1 (stereo not drawn) [(+-)-2-[[2,6-Dihydroxy-4-[[[3-(4-hydroxyphenyl)-2-[(naphthylsulfonyl)amino]propyl]oxy]carbonyl]phenyl]carbonyl]-3-hydroxybenzoic Acid]
O=C(NC(COC(=O)c1cc(O)c(C(=O)c2c(O)cccc2C(=O)O)c(O)c1)Cc1ccc(O)cc1)c1ccc(O)cc1 (stereo not drawn) [(+-)-2-[[2,6-Dihydroxy-4-[[[3-(4-hydroxyphenyl)-2-[[(4-hydroxyphenyl)carbonyl]amino]propyl]oxy]carbonyl]phenyl]carbonyl]-3-hydroxybenzoic Acid]
COC(=O)c1cccc(O)c1C(=O)c1c(O)cc(C(=O)OC[C@H](Cc2ccc(O)cc2)NS(=O)(=O)c2ccccc2)cc1O [(S)-Methyl 2-[[2,6-Dihydroxy-4-[[[3-(4-hydroxyphenyl)-2-[(phenylsulfonyl)amino]propyl]oxy]carbonyl]phenyl]carbonyl]-3-hydroxybenzoate]
